# Patent US9593146B2, “CD44v6-derived peptides for treating metastasizing cancer” (AMCURE GMBH, priority 2012, dated 2017)
# Residues, ends and D or L forms follow the SMILES beside them. No end group written: not given here. *: point of attachment. PEG2000 = polyethylene glycol with a molecular weight of 2000 Da; DOTA = O=C(O)CN1CCN(CC(=O)O)CCN(CC(=O)*)CCN(CC(=O)O)CC1; Myristoyl = CCCCCCCCCCCCCC(=O)*
# Key:
# L3.6pl cells = assay: Human orthotopic model of pancreatic cancer, L3.6pl cells in nude mice; format: in vivo; settings: for reduction of tumor size, ranking (side-by-side comparison): 20 μg per injection three times per week for 3 weeks (FIG. 23A); for variability in the individual tumor size within the group: 20 μg per injection three times per week for 3 weeks (FIG. 23B); for metastatic spreading to the liver (side-by-side comparison): 20 μg per injection three times per week for 3 weeks (FIG. 24); for tumor growth compared to the control peptide (side-by-side comparison): 20 μg per injection three times per week for 3 weeks, 5 animals per group
# Protocol: In the case of the human orthotopic model, L3.6pl pancreatic carcinoma cells (passage 24-26) were suspended in Hank's balanced salt solution (Invitrogen, Karlsruhe, Germany) after trypsinization. The cells were injected orthotopically in the pancreas of male nude mice as described (Bruns C J et al. (1999) Neoplasia 1(1):50-62). Two groups of 15 mice each were injected i.p. 7 days later with either the human v6 peptide respectively rat control peptide (20 μg). For all experiments described and depicted herein either the rat 14mer control peptide or the human 14mer peptide were used. All experiments were then repeated with the rat 5mer control peptide or the human 5mer peptide (N-R-W-H-E, SEQ ID NO: 2). […] The injection was repeated three times per week for 21 days. Two days after the last treatment the animals were killed. […]
# A comparison of different CD44v6 peptide derivatives was performed in animals bearing a orthotopic L3.6pl tumor. 10 groups of 5 animals each received a dose of 20 μg peptide per injection three times per week for 3 weeks with the compounds listed in Table 4. Three weeks after starting the treatment the animals were sacrificed and analyzed for macroscopic metastases and tumor volume.
# BSp73ASs6 cells [1] = assay: Rat syngeneic model, subcutaneous BSp73ASs6 tumor, metastasis formation; format: in vivo; settings: 200 μg per injection, intra-tumoral or intravenously three times a week, start after one week of tumor growth
# Protocol: In the case of the rat syngeneic model, 1×10^6 pancreatic cells (BSp73AS and its transfectants) were subcutaneously injected into the right posterior flank of the animals. Tumors developed for four weeks. During this time period animals injected with BSp73ASs6 cells expressing Met-shRNA or control-shRNA received doxycycline in the drinking water. At the end of the experiment, primary tumors were isolated. Lungs and axillary lymph nodes were analyzed. The tissues were incubated for 24 h in a zinc-fixative (0.5 g calcium acetate, 5.0 g zinc acetate, 5.0 g zinc chloride, in 1 L 0.1 M Tris pH 7.4) and embedded in paraffin for further analysis. In case of peptide or antibody treatment tumors developed for one week before the first treatment. Where indicated, animals received 200 μg of peptide or antibody per injection three times per week for four weeks. Tumor growth was monitored weekly using a caliper. Animals were killed at day 28 or 30 after start of the treatment.
# For histo-morphological analysis paraffin-embedded sections of lungs were stained with hematoxylin and eosin and periodic acid-Schiff (H&E or PAS). Serial sections of the whole tissue blocks were examined by analyzing slices every 20 μm; in each slice, the presence and the extension of the metastatic deposit was assessed, according to the procedure routinely used by pathologists to evaluate the presence of micro-metastases.
# BSp73ASs6 cells [2] = assay: Apoptosis in established lung metastases (cleaved Caspase-3, cleaved Caspase-8), BSp73ASs6 rat model; format: in vivo; settings: injection every second day
# Protocol: 7 μm thick paraffin sections were deparaffinized and rehydrated. For P-Met staining antigen unmasking was achieved by boiling the slides in 1 mM EDTA pH 8.0 followed by incubation for 15 minutes at a sub-boiling temperature, for CD31 staining the sections were treated with Proteinase K (8 μg/ml) for 10 min at 37° C. For immunofluorescence staining of P-Met, unspecific binding was blocked with 5% goat serum (DAKO, Glostrup, Denmark) (diluted in 1×PBS/0.3% Triton X-100) for 60 minutes. In the case of immunohistochemistry, endogenous peroxidases were at first blocked with 3% H2O2 in PBS followed by incubation with biotin blocking system (Dako, Glostrup, Denmark) and then unspecific binding was inhibited by incubation with 5% FCS in PBS. The sections were incubated with the P-Met antibody (D26, dilution 1:50 in 1×PBS/1% BSA/0.3% Triton X-100), Met antibody (C-28, dilution 1:50), GFP antibody (sc-101525, dilution 1:50) or CD31 antibody (5 μg/ml) over night or VFF18 (5 μg/ml) o/n at 4° C. After washing in PBS the sections were incubated with Alexa Fluor R 546 goat anti-rabbit (in case of immunofluorescence P-Met and Met staining, dilution 1:500) or a biotinylated secondary antibody (for immunohistochemical stainings rabbit anti-rat antibody for VFF18 and CD31, goat anti-rabbit for P-Met, cleaved Caspase-3 and cleaved Caspase-8 and rabbit anti-mouse for GFP, dilution 1:500) for 45 minutes. For DAB (3,3′-diaminobenzidine) staining the sections were treated with a streptavidin-peroxidase conjugate (Dako, Glostrup, Denmark) and developed with DAB substrate system (3,3′-diaminobenzidine; Biozol, Eching, Germany). For immunofluorescence DAPI was used for nuclear staining.
# One hypothesis for the disappearance of metastases is that the peptides induce apoptosis of CD44v6-expressing metastatic cells in the secondary organs. In order to test this hypothesis, the experiment described above using the BSp73ASs6 cells was repeated. The cells were injected subcutaneously in syngeneic rats and the tumor was allowed to develop for three weeks. After that time the animals were separated in two groups of 10 animals that were injected either with the specific rat CD44v6 peptide or with the control peptide (mouse) every second day. One day following each injection of the peptide, the lungs of one animal were removed and apoptosis was measured using an antibody that detects the cleaved form of Caspase 3. […] Twelve days after injection of the CD44v6 peptide, less apoptosis was observed. […] From these experiments, it is concluded that the CD44v6 peptide induces apoptosis of metastatic cells.
# HT29 cells = assay: HGF induced scattering of HT29 cells; format: cell-based, human; settings: for HGF induced clustering / scattering of HT29 cells (FIG. 11): HGF 10 ng/ml, peptide pre-incubation (Example 2)
# Protocol: FIG. 17: The human CD44 v6 specific peptides block HGF induced cell scattering and invasion into matrigel. Scattering of HT29 cells was determined in 24-well plates. First, 4.5×10^4 cells were seeded at 37° C.; after 24 h the cells were serum starved for additional 24 h. the cells were either left untreated (control) or later treated with HGF (50 ng/ml) for 24 h. Where indicated the cells were treated with the v6 specific peptide (human v6 5mer, 10mer, 14mer) or control peptide prior to induction with HGF for 30 min. Pictures were made using phase contrast microscopy. Magnification 40×.
# A scatter assay was performed additionally. HT29 colon cancer cells were grown in medium containing 10% FCS. One day after seeding, the cells were starved. On the third day, the cells were induced with HGF (10 ng/ml) and pre-incubated with either no peptide, ctrl-peptides (SEQ ID No.: 15), non-pegylated v6-peptides (SEQ ID No.: 11) or the pegylated peptides, namely PEG-rat control peptide and PEG-rat CD44v6 peptide.
# Scattering of HT29 cells was determined in 24-well plates. First, 4×10^5 cells were seeded at 37° C.; the cells were either left untreated or 48 h later treated with HGF (50 ng/ml) for 24 h or with PEGylated or non-PEGylated peptides (100 ng/ml) prior to HGF induction for 30 min.
# Met and ERK = assay: HGF induced activation of Met and Erk in BSp73ASs6 cells (Western blot); format: cell-based, rat
# Protocol: Serum-starved cells (24 hours) were induced with the growth factor HGF (10 ng/mL) at 37° C. for 5 minutes. Where indicated, the cells were treated with peptides (100 ng/ml) prior to induction at 37° C. for 10 minutes (100 ng/mL CD44v6 peptide or control peptide). Following the induction with HGF, cells were washed with ice-cold phosphate-buffered saline (PBS). To detect activated Met and Erk, cells were lysed in sodium dodecyl sulfate (SDS)-sample buffer containing 100 mM dithiothreitol (DTT), boiled and subjected to western blot analysis using antibodies against phospho-Met and ERK. The loading controls were performed on the same blot after stripping (62.5 mM Tris, pH 6.8, 2% SDS, 0.8% DTT) by probing with the Met respectively ERK antibody. Blots were stained using the enhanced chemiluminescence system (Thermo Fisher Scientific, Schwerte, Germany). Bands in western blot analysis were quantified with the program Image J (National Institutes of Health).
# Rat pancreatic cancer cells BSp73ASs6 (also designated Ass6) were incubated for 10 min at 37° C. with either ctrl-peptides (SEQ ID No.: 15), non-pegylated v6-peptides (SEQ ID No.: 11) and increasing concentrations of the pegylated peptides, namely PEG-rat control peptide and PEG-rat CD44v6 peptide, before induction with HGF (10 ng/ml; 5 min at 37° C.).
# Activation of ERK and Met was determined by standard SDS and Western Blotting techniques using a phospho-Met and phospho-Erk specific antibody (phospho-Met clone D16 cell signaling, phospho-Erk p42/44 cell signaling)
# ASs6 cells, serum starved for 24 h, were induced with HGF (10 ng/ml) at 37° C. for 5 min. Where indicated, the cells were treated with PEGylated or non-PEGylated peptides before induction at 37° C. for 10 min (150 nM). Cells were washed with phosphate-buffered saline (PBS) and lysed in boiling sodium dodecyl sulfate (SDS)-sample buffer containing 100 mM dithiothreitol (DTT). Subsequently, lysates were subjected to Western blot analysis using antibodies against phosphorylated Mek and Erk (Cell signaling). The Mek and Erk loading control were performed on the same blot, stripped (62.5 mM Tris pH 6.8, 2% SDS, 0.8% DTT) and probed with the Mek and Erk antibodies. Blots were stained using the enhanced chemiluminescence system (Thermo Fisher Scientific).
compound,measurement,setting,value
PEG2000-KEQWFGNRWHEGYR-OH [PEG2000 14-mer],"reduction of tumor size, ranking (side-by-side comparison)",L3.6pl cells,strongest reduction of tumor size
same,variability in the individual tumor size within the group,L3.6pl cells,low variability
same,metastatic spreading to the liver (side-by-side comparison),L3.6pl cells,decrease of metastatic spreading
same,tumor growth compared to the control peptide (side-by-side comparison),L3.6pl cells,significant reduction in tumor growth
DOTA-keqwfGNRWHEGyr [DOTA CD44v6-14 [daa7]],metastatic spreading to the liver (side-by-side comparison),L3.6pl cells,decrease of metastatic spreading
mouse control peptides: mouse CD44v6 peptide used as control in the rat syngeneic model (WFQNGWQGKNP) [reference compound],"metastasis (axillary lymph nodes, lungs)",BSp73ASs6 cells [1],numerous metastases were detected in the lungs
same,apoptosis (cleaved Caspase 3) in lung metastases,BSp73ASs6 cells [2],No apoptosis at all was detected
same,lung metastasis at day twenty-two,BSp73ASs6 cells [2],metastatic spreading was evident in the lungs
"NAAAG [ctrl-peptides, reference compound]",HGF induced clustering / scattering of HT29 cells (FIG. 11),HT29 cells,not control peptides lead to dissociation and migration
"Myr-Y-cy[KGNRWHEG] (Myristoyl-YKGNRWHEG; not fully specified (bridges); printed as Myr-Y-cy[KGNRWHEG]; also: cyclic, ring closure not given here) [Myr-Y-cycl 8 mer]",metastatic spreading to the liver (side-by-side comparison),L3.6pl cells,decrease of metastatic spreading
DOTA-cy[KRWHE] [cycl 5 mer],"reduction of tumor size, ranking (side-by-side comparison)",L3.6pl cells,strongest reduction of tumor size
same,variability in the individual tumor size within the group,L3.6pl cells,low variability
same,metastatic spreading to the liver (side-by-side comparison),L3.6pl cells,complete inhibition of metastasis
DOTA-KEQWFGNRWHEGYR ({DOTA}-KEQWFGNRWHEGYR; not fully specified (residue 14)) [DOTA CD44v6-14 [r^14]],metastatic spreading to the liver (side-by-side comparison),L3.6pl cells,complete inhibition of metastasis
Myr-KEQWFGNRWHEGYR (Myristoyl-KEQWFGNRWHEGYR) [Myristoyl-14-mer],tumor growth compared to the control peptide (side-by-side comparison),L3.6pl cells,no inhibitory effect on tumor growth
"PEG-NEWQG [PEG-rat CD44v6 peptide, rat CD44v6 5mer pegylated at the N-terminal]",HGF induced Met-phosphorylation and Erk signaling,"Met and ERK; ASs6 cells, peptides with 2000 dalton PEG-chain, 150 nM 10 min before HGF 10 ng/ml (FIG. 10)",HGF completely failed to induce Met-phosphorylation and to activate Erk signaling
same,"Inhibition of ERK, pegylated vs. non-pegylated peptides",Met and ERK; BSp73ASs6 cells,even more efficient
same,HGF dependent activation of Met and ERK,"Met and ERK; pegylated rat 5mer, 10 min pre-incubation, HGF 10 ng/ml 5 min (FIGS. 9, 10)",efficient in inhibiting HGF dependent activation of Met and ERK
same,HGF induced clustering / scattering of HT29 cells (FIG. 11),HT29 cells,lead to dissociation and migration of cells away from these cell cluster
same,HGF induced scattering of HT29 cells,"HT29 cells; PEGylated peptides 100 ng/ml prior to HGF 50 ng/ml (Example 5, FIG. 11)",strongly inhibited
PEG840-KEQWFGNRWHEGYR-OH [PEG840 14-mer],metastatic spreading to the liver (side-by-side comparison),L3.6pl cells,decrease of metastatic spreading
same,tumor growth compared to the control peptide (side-by-side comparison),L3.6pl cells,significant reduction in tumor growth
"cy[KGNRWHEG] (not fully specified (bridges); printed as cy[KGNRWHEG]; also: cyclic, ring closure not given here) [cycl. 8 mer]","reduction of tumor size, ranking (side-by-side comparison)",L3.6pl cells,strongest reduction of tumor size
same,variability in the individual tumor size within the group,L3.6pl cells,low variability
same,metastatic spreading to the liver (side-by-side comparison),L3.6pl cells,complete inhibition of metastasis
same,metastatic spreading at 2 and 20 μg per injection,"L3.6pl cells; 2 and 20 μg per injection, three times per week",blocked metastatic spreading
same,size / growth of the primary tumor (dose reduction study),"L3.6pl cells; three injections per week for 3 weeks, compared to control groups (FIG. 22C)",drastic effect on growth of the primary tumor
"N=C(N)NCCC[C@H](NC(=O)[C@@H](N)CC(N)=O)C(=O)N[C@@H](Cc1c[nH]c2ccccc12)C(=O)N[C@@H](Cc1c[nH]cn1)C(=O)N[C@@H](CCC(=O)O)C(=O)O [human 5mer, NRWHE] (H-NRWHE-OH; N-terminus and C-terminus assumed)",side effects in the animals,L3.6pl cells; 200 μg per injection i.p. three times per week,did not lead to side effects in the animals
